Laboratory results reported in ChEMBL document CHEMBL5154879, “Induction of Genes Implicated in Stress Response and Autophagy by a Novel Quinolin-8-yl-nicotinamide QN523 in Pancreatic Cancer” (J Med Chem, 2022).
Calls of active or inactive are those of the source. No cut-off for these calls is given here.

Tests used:
BXPC-3 = test: Cytotoxicity against human BXPC-3 cells assessed as inhibition of cell growth incubated for 72 hrs by MTT assay; type: functional, cell-based; settings: BXPC-3, 72 h
MIA PaCa-2 [1] = test: Downregulation of mitotic spindle gene expression in human MIA PaCa-2 cells by gene set enrichment analysis; type: functional, cell-based
MIA PaCa-2 [2] = test: Induction of cell cycle arrest in human MIA PaCa-2 cells assessed as accumulation of cells in G0/G1 phase at 0.5 uM incubated for 48 hrs by RNase/propidium iodide staining based flow cytometry analysis (reference value: 70.4%); type: functional
[3] = Downregulation of NEURLIB gene expression in human MIA PaCa-2 cells assessed as fold change in NEURLIB expression at 1 uM incubated for 24 hrs by Bru-seq analysis relative to control; type: functional
MIA PaCa-2 [4] = test: Upregulation of P53 pathway in human MIA PaCa-2 cells by gene set enrichment analysis; type: functional, cell-based
[5] = Toxicity in NOD/SCID mouse xenografted with human MIA PaCa- 2 cells assessed as morphological changes in spleen at 10 to 20 mg/kg, ip administered five times a week for 44 days by H and E staining based inverted microscopic analysis; type: organism-based; settings: in vivo, 1056 h, dose 10-20 mg/kg, time 44 day
MIA PaCa-2 [6] = test: Induction of cell cycle arrest in human MIA PaCa-2 cells assessed as accumulation of cells at S phase at 0.5 uM incubated for 24 hrs by RNase/propidium iodide staining based flow cytometry analysis (Rvb =27.6 %); type: functional
[7] = Upregulation of SESN2 gene expression in human MIA PaCa-2 cells assessed as fold change in SESN2 expression at 1 uM incubated for 24 hrs by Bru-seq analysis relative to control; type: functional
MIA PaCa-2 [8] = test: Induction of apoptosis in human MIA PaCa-2 cells assessed as late apoptotic cells at 0.5 uM incubated for 24 hrs by Annexin V-FITC/PI staining based flow cytometry analysis (reference value: 2.04%); type: functional
MIA PaCa-2 [9] = test: Antitumor activity against human MIA PaCa-2 cells xenografted in NOD/SCID mouse assessed as tumor growth inhibition at 20 mg/kg, ip administered five times a week starting from day 10 to 44 and measured from day 17 relative to control; type: functional; settings: MIA PaCa-2, 816 h, time 34 day, read-out: TGI
MIA PaCa-2 [10] = test: Upregulation of ER- related gene expression in human MIA PaCa-2 cells; type: functional, cell-based
[11] = Upregulation of […] gene expression in human MIA PaCa-2 cells assessed as fold change in […] expression at 1 uM incubated for 24 hrs by Bru-seq analysis relative to control; type: functional
MIA PaCa-2 [12] = test: Upregulation of hypoxia in human MIA PaCa-2 cells by gene set enrichment analysis; type: functional, cell-based
[13] = Downregulation of RGS3 gene expression in human MIA PaCa-2 cells assessed as fold change in RGS3 expression at 1 uM incubated for 24 hrs by Bru-seq analysis relative to control; type: functional
MIA PaCa-2 [14] = test: Downregulation of cell cycle gene expression in human MIA PaCa-2 cells; type: functional, cell-based
[15] = Downregulation of STK1I gene expression in human MIA PaCa-2 cells assessed as fold change in STK1I expression at 1 uM incubated for 24 hrs by Bru-seq analysis relative to control; type: functional
MIA PaCa-2 [16] = test: Induction of apoptosis in human MIA PaCa-2 cells assessed as early apoptotic cells at 0.1 uM incubated for 48 hrs by Annexin V-FITC/PI staining based flow cytometry analysis (reference value: 1.8%); type: functional
[17] = Downregulation of HMG20B gene expression in human MIA PaCa-2 cells assessed as fold change in HMG20B expression at 1 uM incubated for 24 hrs by Bru-seq analysis relative to control; type: functional
MIA PaCa-2 [18] = test: Induction of circadian rhythm signaling pathway in human MIA PaCa-2 cells by ingenuity pathway analysis; type: functional, cell-based
[19] = Downregulation of GTSEI gene expression in human MIA PaCa-2 cells assessed as fold change in GTSEI expression at 1 uM incubated for 24 hrs by Bru-seq analysis relative to control; type: functional
[20] = Downregulation of TRAF7 gene expression in human MIA PaCa-2 cells assessed as fold change in TRAF7 expression at 1 uM incubated for 24 hrs by Bru-seq analysis relative to control; type: functional
[21] = Upregulation of ATF3 gene expression in human MIA PaCa-2 cells assessed as fold change in ATF3 expression at 1 uM incubated for 24 hrs by Bru-seq analysis relative to control; type: functional
MIA PaCa-2 [22] = test: Induction of apoptosis in human MIA PaCa-2 cells assessed as viable cells at 0.1 uM incubated for 24 hrs by Annexin V-FITC/PI staining based flow cytometry analysis (reference value: 90.2%); type: functional; settings: read-out: Activity
[23] = Cytotoxicity against HEK293 cells assessed as inhibition of cell growth incubated for 72 hrs by MTT assay; type: toxicity, cell-based; settings: human
MIA PaCa-2 [24] = test: Induction of apoptosis in human MIA PaCa-2 cells assessed as necrotic cells at 0.1 uM incubated for 24 hrs by Annexin V-FITC/PI staining based flow cytometry analysis (reference value: 2.7%); type: functional
MIA PaCa-2 [25] = test: Upregulation of NFkappaB expression in human MIA PaCa-2 cells by gene set enrichment analysis; type: functional, cell-based
MIA PaCa-2 [26] = test: Induction of cell cycle arrest in human MIA PaCa-2 cells assessed as accumulation of cells in G0/G1 phase at 0.1 uM incubated for 24 hrs by RNase/propidium iodide staining based flow cytometry analysis (reference value: 64.3%); type: functional
[27] = Downregulation of SEMA4C gene expression in human MIA PaCa-2 cells assessed as fold change in SEMA4C expression at 1 uM incubated for 24 hrs by Bru-seq analysis relative to control; type: functional
Jurkat = test: Antiproliferative activity against human Jurkat cells assessed as inhibition of cell growth incubated for 72 hrs by MTT assay; type: functional, cell-based
MIA PaCa-2 [28] = test: Induction of cell cycle arrest in human MIA PaCa-2 cells assessed as accumulation of cells in G0/G1 phase at 0.1 uM incubated for 48 hrs by RNase/propidium iodide staining based flow cytometry analysis (reference value: 70.4%); type: functional
MIA PaCa-2 [29] = test: Upregulation of apoptotic gene expression in human MIA PaCa-2 cells by gene set enrichment analysis; type: functional, cell-based
MIA PaCa-2 [30] = test: Induction of apoptosis in human MIA PaCa-2 cells assessed as late apoptotic cells at 0.1 uM incubated for 24 hrs by Annexin V-FITC/PI staining based flow cytometry analysis (reference value: 2.04%); type: functional
[31] = Downregulation of PLEKHG3 gene expression in human MIA PaCa-2 cells assessed as fold change in PLEKHG3 expression at 1 uM incubated for 24 hrs by Bru-seq analysis relative to control; type: functional
[32] = Upregulation of HERPUD1 gene expression in human MIA PaCa-2 cells assessed as fold change in HERPUD1 expression at 1 uM incubated for 24 hrs by Bru-seq analysis relative to control; type: functional
[33] = Downregulation of LMNB2 gene expression in human MIA PaCa-2 cells assessed as fold change in LMNB2 expression at 1 uM incubated for 24 hrs by Bru-seq analysis relative to control; type: functional

Q: Which IC50 (BXPC-3) does the source give for `O=C(Nc1cccc2cccnc12)c1cnccn1` here?
A: Its IC50 is 3300 nM.

Q: What about the Activity (MIA PaCa-2 [1]) of the same molecule?
A: The Activity was “Active”.

Q: What about the Activity (MIA PaCa-2 [2]) of the same molecule?
A: The Activity was 31.2%.

Q: What about the “fold change (FC)” value [3] of the same molecule?
A: The value was 0.44.

Q: And the Activity (MIA PaCa-2 [4])?
A: The Activity was “Active”.

Q: And the Activity [5]?
A: The Activity was “Non-Toxic”.

Q: And the Activity (MIA PaCa-2 [6])?
A: Its Activity is 45.1%.

Q: What about the “fold change (FC)” value [7] of the same molecule?
A: Its value is 5.4.

Q: And the Activity (MIA PaCa-2 [8])?
A: The Activity was 2.1%.

Q: What about the inhibition in vivo at 20 mg/kg (MIA PaCa-2 [9]) of the same molecule?
A: The inhibition in vivo at 20 mg/kg was 80%.

Q: What about the Activity (MIA PaCa-2 [10]) of the same molecule?
A: Its Activity is “Active”.

Q: What about the “fold change (FC)” value [11] of the same molecule?
A: Its value is 12.8.

Q: And the Activity (MIA PaCa-2 [12])?
A: Its Activity is “Active”.

Q: What about the “fold change (FC)” value [13] of the same molecule?
A: Its value is 0.46.

Q: What about the Activity (MIA PaCa-2 [14]) of the same molecule?
A: The Activity was “Active”.

Q: And the “fold change (FC)” value [15]?
A: The value was 0.4.

Q: What about the Activity (MIA PaCa-2 [16]) of the same molecule?
A: The Activity was 5.5%.

Q: And the “fold change (FC)” value [17]?
A: The value was 0.33.

Q: What about the Activity (MIA PaCa-2 [18]) of the same molecule?
A: The Activity was “Active”.

Q: What about the “fold change (FC)” value [19] of the same molecule?
A: The value was 0.46.

Q: What about the “fold change (FC)” value [20] of the same molecule?
A: The value was 0.39.

Q: What about the “fold change (FC)” value [21] of the same molecule?
A: The value was 22.

Q: And the viability at 0.1 µM (MIA PaCa-2 [22])?
A: Its viability at 0.1 µM is 84.9%.

Q: And the IC50 at 72 h [23]?
A: The IC50 at 72 h was 150 nM.

Q: What about the Activity (MIA PaCa-2 [24]) of the same molecule?
A: The Activity was 2.2%.

Q: And the Activity (MIA PaCa-2 [25])?
A: Its Activity is “Active”.

Q: What about the Activity (MIA PaCa-2 [26]) of the same molecule?
A: The Activity was 52%.

Q: And the “fold change (FC)” value [27]?
A: Its value is 0.39.

Q: And the IC50 (Jurkat)?
A: The IC50 was 100 nM.

Q: And the Activity (MIA PaCa-2 [28])?
A: Its Activity is 62.4%.

Q: What about the Activity (MIA PaCa-2 [29]) of the same molecule?
A: The Activity was “Active”.

Q: And the Activity (MIA PaCa-2 [30])?
A: Its Activity is 2.3%.

Q: What about the “fold change (FC)” value [31] of the same molecule?
A: Its value is 0.39.

Q: And the “fold change (FC)” value [32]?
A: Its value is 9.8.

Q: And the “fold change (FC)” value [33]?
A: Its value is 0.46.
